Measurements from US6660741B2, “Asymmetric synthesis of (S,S,R)-(-)-actinonin and its analogs and uses therefor” (Sloan-Kettering Institute for Cancer Research, priority 2001, dated 2003).
Read-outs that look alike come from different tables or passages of the source.

What was measured:
A2780 = experiment: XTT cytotoxicity assay, 5-day culture, A2780; type: cell-based; settings: Homo sapiens, 120 h, A2780, Ovarian Ca, 5 days, read-out: IC50 (μM ± SEM)
Method: (§1) Actinonin was assayed for cytotoxity in human ovarian carcinoma, prostate carcinoma, mammary carcinoma, head and neck squamous cell carcinoma (HNSSC), non-small-cell-lung-cancer adenocarcinoma (NSCLC-AdCa), and non-small-cell-lung-cancer squamous cells (NSCLC-SSC) (15). Actinonin was also tested against acute mylegenous leukemia (AML) cells.

TSU-PR^1 = experiment: XTT cytotoxicity assay, 5-day culture, TSU-PR1; type: cell-based; settings: Homo sapiens, 120 h, TSU-PR1, Prostate Ca, 5 days, read-out: IC50 (μM ± SEM)
Method: as §1

PC-3 = experiment: XTT cytotoxicity assay, 5-day culture, PC-3; type: cell-based; settings: Homo sapiens, 120 h, PC-3, Prostate Ca, 5 days, read-out: IC50 (μM ± SEM)
Method: as §1

DU-145 = experiment: XTT cytotoxicity assay, 5-day culture, DU-145; type: cell-based; settings: Homo sapiens, 120 h, DU-145, Prostate Ca, 5 days, read-out: IC50 (μM ± SEM)
Method: as §1

HL-60 = experiment: XTT cytotoxicity assay, 5-day culture, HL-60; type: cell-based; settings: Homo sapiens, 120 h, HL-60, PML, 5 days, read-out: IC50 (μM ± SEM)
Method: as §1

MDA-MB468 = experiment: XTT cytotoxicity assay, 5-day culture, MDA-MB468; type: cell-based; settings: Homo sapiens, MDA-MB-468, 120 h, MDA-MB468, Mammary Ca, 5 days, read-out: IC50 (μM ± SEM)
Method: as §1

SK-BRIII = experiment: XTT cytotoxicity assay, 5-day culture, SK-BRIII; type: cell-based; settings: Homo sapiens, 120 h, Mammary Ca, 5 days, read-out: IC50 (μM ± SEM)
Method: as §1

HT1080 = experiment: XTT cytotoxicity assay, 5-day culture, HT1080; type: cell-based; settings: Homo sapiens, HT-1080, 120 h, HT1080, HNSSC, 5 days, read-out: IC50 (μM ± SEM)
Method: as §1

SK-LC-8 = experiment: XTT cytotoxicity assay, 5-day culture, SK-LC-8; type: cell-based; settings: Homo sapiens, 120 h, SK-LC-8, NSCLC-AdCa, 5 days, read-out: IC50 (μM ± SEM)
Method: as §1

SK-LC-16 = experiment: XTT cytotoxicity assay, 5-day culture, SK-LC-16; type: cell-based; settings: Homo sapiens, 120 h, SK-LC-16, NSCLC-SSC, 5 days, read-out: IC50 (μM ± SEM)
Method: as §1

[1] = test system: all the cell lines tested; experiment: Cytotoxicity of actinonin, summary over all cell lines tested; type: cell-based, human; settings: in the μM range
Method: as §1

[2] = test system: CWR22 human prostate tumor; settings: for Change in tumor Vol. (mm^3): initial 45 mm^3; for Ave. Tumor Diameter (mm ± SEM): initial tumor diameter 4.4
Method: Actinonin was also evaluated against the CWR22 human prostate tumor xenografted in nude mice (15).

[3] = test system: Daudi (B lineage Burkitt's lymphoma, CD13 negative) cells; experiment: Inhibition of tritiated thymidine incorporation, 5 day, Daudi; type: cell-based; settings: Homo sapiens, 120 h, 5 days
Method: (§2) Actinonin was purchased from Sigma (St. Louis, Mo.). Biotinylated-Actinonin and all analogs were synthesized. Actinonin stock solution was 5 mg/ml in 10% ethanol. Biotinylated-actinonin and all other analogs were diluted in 10% DMSO to give stock solutions in the range of 1-20 mg/ml.
(§3) Daudi (B lineage Burkitt's lymphoma, CD13 negative) and HL60 (acute myeloid leukemia, CD13 positive) cells were maintained in culture using RPMI 1640 supplemented with 10% heat-inactivated FBS (Omega Scientific, Inc., Tarzana, Calif.) and 1% L-glutamine (Gibco/Invitrogen, Carlsbad, Calif.) at 37° C. in a humidified atmosphere of 5% CO2. Cell viability was higher than 90%, and cells were free of mycoplasma contamination.
(§4) An aliquot of 200 ul of cells (10,000 cells/well) was washed and incubated at 37° C. in 96-well plates in the presence or absence of actinonin/analogs. Serial dilutions were made in complete media. After 5 days of incubation, 50 ul of 10 uCi/mL tritiated thymidine (PerkinElmer, Boston, Mass.) was added to each well and allowed to incorporate for 5 hours. Plates were frozen at −80° C. overnight and cells were harvested onto filtermats (Wallac, Finland) using a semi-automatic harvester (Skatron, Sterling, Va.). Filtermats were counted in a 1205 Betaplate™ liquid scintillation counter (Wallac, Finland). The reference numbers refer to those analogs disclosed in Example 6. Compounds 35, 42, 48, 52, 53, and 56 are effective at inhibiting cell growth.

[4] = test system: HL60 (acute myeloid leukemia, CD13 positive) cells; experiment: Inhibition of tritiated thymidine incorporation, 5 day, HL60; type: cell-based; settings: Homo sapiens, HL-60, 120 h, HL60, 5 days
Method: as §2, §3, §4

tumor cell lines = settings: cited from earlier work
[5] = test system: human leukemia and lymphoma cells; settings: cited from earlier work
AKR leukemia = settings: cited from earlier work

CCCCC[C@H](CC(=O)NO)C(=O)N[C@H](C(=O)N1CCC[C@H]1CO)C(C)C [Actinonin, (S,S,R)-(−)-Actinonin]
IC50 (A2780): 4.8 ± 1 µM
IC50 (TSU-PR^1): 9.1 ± 1.5 µM
IC50 (PC-3): 10 ± 1 µM
IC50 (DU-145): 17 µM
IC50 (HL-60): 6.8 ± 1 µM
IC50 (MDA-MB468): 7.1 ± 1 µM
IC50 (SK-BRIII): 7.9 ± 1 µM
IC50 (HT1080): 11 ± 2 µM
IC50 (SK-LC-8): 14 ± 2 µM
IC50 (SK-LC-16): 12 ± 2 µM
cytotoxicity against all the cell lines tested [1]: remarkably cytotoxic
Inhibition T/C % ([2]; 300 mg/kg ip): 97%
Change in tumor Vol. (mm^3) ([2]; 300 mg/kg ip): +36 mm^3
Ave. Tumor Diameter (mm ± SEM) ([2]; 300 mg/kg ip): 5.4 ± 1 mm
Inhibition T/C % ([2]; 600 mg/kg ip): 88%
Change in tumor Vol. (mm^3) ([2]; 600 mg/kg ip): +142 mm^3
Ave. Tumor Diameter (mm ± SEM) ([2]; 600 mg/kg ip): 7.1 ± 2 mm
tumor growth inhibition ([2]; at a dose slightly below the maximum tolerated dose (MTD) for the mouse): excellent tumor growth inhibition
IC50 ([3]; read-out: Daudi IC50 (uM), 5 day thymidine incorporation): 6.7 µM
IC50 ([3]; read-out: Daudi IC50 (ug/mL), 5 day thymidine incorporation): 2.6 µg/mL
IC50 ([4]; read-out: HL60 IC50 (uM), 5 day thymidine incorporation): 10.6 µM
IC50 ([4]; read-out: HL60 IC50 (ug/mL), 5 day thymidine incorporation): 4.1 µg/mL
cytotoxicity towards tumor cell lines in vitro (tumor cell lines): exhibits cytotoxicity
cell cycle arrest and apoptosis [5]: induces GI arrest and apoptosis
treatment of AKR leukemia (AKR leukemia; AKR mice): treats AKR leukemia
toxicity in AKR mice (AKR leukemia; mouse, in vivo): minimal toxicity
